US20230241000A1, “GSK3 INHIBITOR-LOADED NANO FORMULATIONS AS A CANCER IMMUNOTHERAPEUTIC” (The Regents of the University of California, priority 2020, published 2023)

Columns and labels:
[1] = Safety analysis in MC38 mice (animal weight, blood chemistry, organ H&E histology); assay type: in vivo, C57BL/6 mice; conditions: serum at sacrifice
Experimental: While there is sparse literature on the use of AZD1080 in animal studies, this agent had to be discontinued in a phase I clinical trial in humans due to nephrotoxicity (15).
The histology preparation and staining of tumor tissue and mouse organs was performed in the Pathology Core Facility of the UCLA Jonsson Comprehensive Cancer Center. Tissues were fixed in 10% neutral-buffered formalin for 24 hours, then gradually dehydrated in 25-75% ethanol solutions over 3 days. Tissues were embedded in paraffin, sectioned at 4 μm thickness, and stained by anti-CD8, anti-cleaved caspase 3, anti-perforin, anti-PD-1, or haemotoxylin and eosin (H&E). Slides were digitally scanned for analysis using Aperio ImageScope software (Leica Biosystems, Buffalo Grove, Ill.). Four fields of view were analyzed per tumor at 20× magnification, with all positively stained cells counted within the field and averaged across fields. The investigator was blinded with respect to the animal groups to avoid bias during counting. Fields of view were chosen to avoid the tumor periphery and processing artifacts.
At the time of sacrifice, blood was obtained by cardiac puncture from MC38 tumor growing animals and collected into Greiner Bio-One MiniCollect Capillary Blood collection system tubes. Tubes were centrifuged as per manufacturer's instructions to separate serum from blood cells. The serum was frozen at […] and subsequently used, to obtain a comprehensive serum chemistry panel, develop by IDEXX Laboratories (Westbrook, Me.), for use in the UCLA Division of Laboratory Animal Medicine (DLAM).

[2] = system: CD8+ T-cells in MC38 tumors; assay: Flow cytometry of tumor-infiltrating CD8+ T-cells in MC38 tumors; assay type: in vivo, C57BL/6 mice
Description: In order to address the change in the immunological landscape with treatment, we asked whether sAZD1080 could impact the immune parameters that underpin treatment efficacy for immune checkpoint blocking antibodies. These include the CD8^+ cell number, the abundance of PD-1 expression on these cells, perforin release and the generation of cancer cell death, as reflected by activated caspase 3. For the first analysis, tumor cell digests were used to assess the number of CD8^+/CD107a^+/granzyme B^+ lymphocytes by flow cytometry (14, 30). […] In order to assess the status of PD-1 expression on CD8+ cells, flow cytometry was used to assess the % of […] cells in the tumor digests (14, 31).
Tumors were harvested from MC38 mice after sacrifice. Tumors larger than 100 mm^3 were divided in two, with one half preserved for histology and the other half used to conduct flow cytometry. To prepare samples for flow cytometry, tumor chunks of 2-3 mm^3 were incubated in an enzyme cocktail (1 mg/mL collagenase type IV, 2000 U DNase type IV, 0.1 mg/mL hyaluronidase type V in 1×HBSS) for 1 hour, and the digests passed through a 70 μm nylon filter. Cells were pelleted and washed in HBSS.
Cells were diluted in cell staining buffer, pelleted by centrifuging at 350×g for 5 minutes, and washed twice. […]

[3] = humans; literature (15); cited from earlier work
[4] = system: Pdcd1 expression; assay: RT-qPCR of Pdcd1 in anti-CD3 activated primary murine T-cells; assay type: cell-based, C57BL/6 mouse; conditions: 10 μM, 72 hours, normalized against Gapdh
Experimental: (§1) This is compatible with the translational expression of T-bet, a transcription factor that interferes in PD-1 expression (FIG. 1, panel B).
(§2) Wells of a 96-well tissue culture plate were coated with anti-mouse CD3 antibody (Ultra-LEAF, Biolegend). 7.5 μL of 1 mg/mL antibody solution was diluted in 1 mL of 1×PBS, before 50 μL of the dilution was added to each plate well for 2 hours at 37° C. The wells were then thoroughly washed 3× with 1×PBS.
(§3) T-cells were extracted from C57BL/6 mouse spleens, using a standard procedure with minor modifications (71). Two mouse spleens were mechanically disrupted and the released cells were passed through a 70 μm filter. Red blood cells were lysed using RBC lysis buffer (eBioscience) at 4° C. for 5 minutes. 10 mL of 1×PBS was added to stop the lysis process, following which cells were pelleted at 300×g for 5 minutes. […]
(§4) Cells were collected and RNA was extracted using Direct-zol RNA MiniPrep Plus kits (Zymo), as per the manufacturer's instructions. Extracted RNA was converted into cDNA using SuperScript III First-Strand Synthesis System kits (Invitrogen). cDNA from treated T-cells was analyzed by RT-PCR using a LightCycler 480 instrument (Roche) and the LightCycler 480 SYBR Green I Master kit (Roche), per manufacturer's instructions. cDNA was analyzed using forward and reverse primers for Pdcd1, Tbx21, and Gapdh as a control, as described previously (10, 14). […]

[5] = system: Tbx21 expression; assay: RT-qPCR of Tbx21 in anti-CD3 activated primary murine T-cells; assay type: cell-based, C57BL/6 mouse; conditions: 10 μM, 72 hours, normalized against Gapdh
Experimental: as §1, §2, §3, §4

[6] = system: GSK3; conditions: values provided by chemical vendors (Cayman Chemical, Selleck Chemicals); cited from earlier work

## N#Cc1ccc2[nH]c(O)c(-c3ccc(CN4CCOCC4)cn3)c2c1 [AZD1080]
[1]
  albumin:globulin ratio: depress
  blood chemistry panel (overall): more variation in blood chemistry
  total bilirubin and BUN levels: reductions
[2]
  % of CD8/PD-1+ cells in the tumor digests: did not impact
[3]
  toxicity leading to discontinuation in phase I clinical trial: nephrotoxicity
[4]
  reduction in Pdcd1 mRNA expression: ~6 fold
[5]
  Tbx21 mRNA expression: increased
[6]
  IC50: 31 nM
